Test results taken from PubChem BioAssay AID330 (DTP/NCI, 2004).
Toxic doses and inconclusive results are not listed.

Tested on: P388 leukemia ip, CD2F1 mice, survival T/C
Assay: NCI In Vivo Anticancer Drug Screen. Data for tumor model P388 Leukemia (intraperitoneal) in CD2F1 (CDF1) mice
Settings: endpoint: median survival time, higher = longer survival
Procedure, shortened: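 Mice carrying the transplanted tumor received test compound or vehicle. Survival was recorded in each group, and the value is the treated-group measurement divided by that of the vehicle-treated control group.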

[1] = dose: 50.0 mg/kg/injection, schedule: Q01DX005 (ip), vehicle: Klucel (hydroxypropylcellulose) (HPC)
[2] = dose: 100.0 mg/kg/injection, schedule: Q01DX005 (ip), vehicle: Klucel (hydroxypropylcellulose) (HPC)
[3] = dose: 200.0 mg/kg/injection, schedule: Q01DX005 (ip), vehicle: Klucel (hydroxypropylcellulose) (HPC)
[4] = dose: 50.0 mg/kg/injection, schedule: Q01DX005 (ip), vehicle: saline with Tween-80
[5] = dose: 100.0 mg/kg/injection, schedule: Q01DX005 (ip), vehicle: saline with Tween-80
[6] = dose: 200.0 mg/kg/injection, schedule: Q01DX005 (ip), vehicle: saline with Tween-80
[7] = dose: 100.0 mg/kg/injection, schedule: Q01DX009 (ip), vehicle: Klucel (hydroxypropylcellulose) (HPC)
[8] = dose: 100.0 mg/kg/injection, schedule: Q04DX003 (ip), vehicle: saline
[9] = dose: 50.0 mg/kg/injection, schedule: Q01DX009 (ip), vehicle: Klucel (hydroxypropylcellulose) (HPC)
[10] = dose: 200.0 mg/kg/injection, schedule: Q01DX009 (ip), vehicle: Klucel (hydroxypropylcellulose) (HPC)

Q: `CC(C)=Cc1cc(CCC/C(C)=C/Cc2c(O)cc(C)c(C(=O)O)c2O)co1` was tested. Which T/C (dose: 4.5 mg/kg/injection, schedule: Q01DX005 (ip), vehicle: Klucel (hydroxypropylcellulose) (HPC)) did it give?
A: Its T/C is 100 % of control.

Q: And the T/C (dose: 9.0 mg/kg/injection, schedule: Q01DX005 (ip), vehicle: Klucel (hydroxypropylcellulose) (HPC))?
A: Its T/C is 91 % of control.

Q: And the T/C (dose: 18.0 mg/kg/injection, schedule: Q01DX005 (ip), vehicle: Klucel (hydroxypropylcellulose) (HPC))?
A: Its T/C is 92 % of control.

Q: What about the T/C (dose: 36.0 mg/kg/injection, schedule: Q01DX005 (ip), vehicle: Klucel (hydroxypropylcellulose) (HPC)) of the same molecule?
A: The T/C was 98 % of control.

Q: What about the T/C [1] of the same molecule?
A: The T/C was 105 % of control.

Q: And the T/C (dose: 72.0 mg/kg/injection, schedule: Q01DX005 (ip), vehicle: Klucel (hydroxypropylcellulose) (HPC))?
A: Its T/C is 88 % of control.

Q: And the T/C [2]?
A: The T/C was 107 % of control.

Q: And the T/C [3]?
A: The T/C was 98 % of control.

Q: Which T/C [4] does the source give for `CC(=O)/C=C/c1ccc(OC(=O)/C=C/c2ccccc2)cc1` here?
A: Its T/C is 101 % of control.

Q: What about the T/C [5] of the same molecule?
A: Its T/C is 100 % of control.

Q: What about the T/C [6] of the same molecule?
A: Its T/C is 98 % of control.

Q: For `CC(=NCCCCCCN=C(C)c1cc(O)ccc1O)c1cc(O)ccc1O`, which T/C [1] is on record?
A: The T/C was 92 % of control.

Q: And the T/C [2]?
A: The T/C was 94 % of control.

Q: What about the T/C [3] of the same molecule?
A: The T/C was 87 % of control.

Q: With `CCN(CC)CCNc1ccc(C)c2sc3cccc(O)c3c(=O)c12` as the molecule, how does the T/C [7] read?
A: The T/C was 181 % of control.

Q: What does the source list for `CCOC(=O)C/[N+]([O-])=C/c1ccccc1`?
A: T/C (dose: 12.5 mg/kg/injection, schedule: Q01DX009 (ip), vehicle: other): 100 % of control; T/C (dose: 25.0 mg/kg/injection, schedule: Q01DX009 (ip), vehicle: other): 98 % of control; T/C (dose: 50.0 mg/kg/injection, schedule: Q01DX009 (ip), vehicle: other): 117 % of control; T/C (dose: 100.0 mg/kg/injection, schedule: Q01DX009 (ip), vehicle: other): 100 % of control; T/C (dose: 200.0 mg/kg/injection, schedule: Q01DX009 (ip), vehicle: other): 100 % of control

Q: Which T/C (dose: 12.5 mg/kg/injection, schedule: Q01DX009 (ip), vehicle: saline with Tween-80) does the source give for `CN(C)c1nc(N)c(N=O)c(=O)[nH]1` here?
A: The T/C was 104 % of control.

Q: And the T/C (dose: 25.0 mg/kg/injection, schedule: Q01DX009 (ip), vehicle: saline with Tween-80)?
A: The T/C was 94 % of control.

Q: And the T/C (dose: 50.0 mg/kg/injection, schedule: Q01DX009 (ip), vehicle: saline with Tween-80)?
A: The T/C was 94 % of control.

Q: What about the T/C (dose: 50.0 mg/kg/injection, schedule: Q01DX009 (ip), vehicle: saline) of the same molecule?
A: The T/C was 87 % of control.

Q: What about the T/C (dose: 50.0 mg/kg/injection, schedule: Q04DX003 (ip), vehicle: saline with Tween-80) of the same molecule?
A: Its T/C is 94 % of control.

Q: And the T/C (dose: 100.0 mg/kg/injection, schedule: Q04DX003 (ip), vehicle: saline with Tween-80)?
A: The T/C was 93 % of control.

Q: `N=c1c(C(N)=O)cnc2n1CCCCC2` was tested. Which T/C (dose: 25.0 mg/kg/injection, schedule: Q04DX003 (ip), vehicle: saline) did it give?
A: The T/C was 100 % of control.

Q: And the T/C (dose: 50.0 mg/kg/injection, schedule: Q04DX003 (ip), vehicle: saline)?
A: The T/C was 100 % of control.

Q: What about the T/C [8] of the same molecule?
A: The T/C was 98 % of control.

Q: `CCOC(=O)CC(=O)N(CC)CC` was tested. Which T/C (dose: 100.0 mg/kg/injection, schedule: Q01DX009 (ip), vehicle: saline with Tween-80) did it give?
A: The T/C was 104 % of control.

Q: And the T/C (dose: 200.0 mg/kg/injection, schedule: Q01DX009 (ip), vehicle: saline with Tween-80)?
A: The T/C was 100 % of control.

Q: And the T/C (dose: 400.0 mg/kg/injection, schedule: Q01DX009 (ip), vehicle: saline with Tween-80)?
A: Its T/C is 95 % of control.

Q: Which T/C (dose: 50.0 mg/kg/injection, schedule: Q01DX001 (ip), vehicle: Klucel (hydroxypropylcellulose) (HPC)) does the source give for `CCCCCCC1NC(CCCCC)N2C(CCCCC)N12` (configuration not stated) here?
A: The T/C was 101 % of control.

Q: And the T/C (dose: 100.0 mg/kg/injection, schedule: Q01DX001 (ip), vehicle: Klucel (hydroxypropylcellulose) (HPC))?
A: Its T/C is 103 % of control.

Q: And the T/C (dose: 200.0 mg/kg/injection, schedule: Q01DX001 (ip), vehicle: Klucel (hydroxypropylcellulose) (HPC))?
A: The T/C was 95 % of control.

Q: How did the T/C [4] turn out when `ClC(Cl)=C(Cl)Sc1ccccc1` was run?
A: The T/C was 105 % of control.

Q: And the T/C [5]?
A: Its T/C is 105 % of control.

Q: And the T/C [6]?
A: The T/C was 107 % of control.

Q: With `CC(=O)Oc1cccc2c1CC(C[Se]c1ccccc1)C(=O)O2` (configuration not stated) as the molecule, how does the T/C [4] read?
A: Its T/C is 94 % of control.

Q: What about the T/C [5] of the same molecule?
A: The T/C was 89 % of control.

Q: How did the T/C (dose: 60.0 mg/kg/injection, schedule: Q01DX005 (ip), vehicle: saline with Tween-80) turn out when `CC(C)c1cccc(C(C)C)c1NC(=O)OC1CCCCC1C` (configuration not stated) was run?
A: Its T/C is 94 % of control.

Q: And the T/C (dose: 120.0 mg/kg/injection, schedule: Q01DX005 (ip), vehicle: saline with Tween-80)?
A: The T/C was 90 % of control.

Q: And the T/C (dose: 240.0 mg/kg/injection, schedule: Q01DX005 (ip), vehicle: saline with Tween-80)?
A: The T/C was 98 % of control.

Q: Which results are given for `O=C(CNNC(=S)Nc1cccc2ccccc12)c1cccc2c1Nc1ccccc1S2`?
A: T/C [9]: 101 % of control; T/C [7]: 103 % of control; T/C [10]: 101 % of control

Q: `O=[N+]([O-])c1cc(Br)cc2c1[nH]c1nc3ccc(C(F)(F)F)cc3nc12` was tested. Which T/C [8] did it give?
A: Its T/C is 91 % of control.

Q: What about the T/C (dose: 200.0 mg/kg/injection, schedule: Q04DX003 (ip), vehicle: saline) of the same molecule?
A: The T/C was 95 % of control.

Q: What about the T/C (dose: 400.0 mg/kg/injection, schedule: Q04DX003 (ip), vehicle: saline) of the same molecule?
A: The T/C was 94 % of control.

Q: `CC(C)S(=O)(=O)c1ccc(Cl)cc1[N+](=O)[O-]` was tested. Which T/C [9] did it give?
A: Its T/C is 100 % of control.

Q: And the T/C [7]?
A: The T/C was 99 % of control.

Q: And the T/C [10]?
A: The T/C was 99 % of control.
